Data: PMC12084297, “Cytoplasmic connexin43-microtubule interactions promote glioblastoma stem-like cell maintenance and tumorigenicity” (Cell Death & Disease, 2025)

System: LN229/GSC tumor
Test: LN229/GSC tumor growth in mouse flank
Type: in vivo, mouse (BALB/c nude), human LN229/GSC cells
From the text: Animal studies were approved by the Institutional Animal Care and Use Committee (IACUC) of Virginia Tech. Female athymic nude mice (Envigo) aged 6-8 weeks were used for the maintenance and propagation of PDX GBM22 cells. PDX GBM22 tumors were maintained by serial passage in nude mouse flanks as described previously. Briefly, tumors were harvested 14–18 days post-injection and glioblastoma cells were mechanically and enzymatically dissociated. Cells were passed through a 40 µm filter and maintained as gliospheres in DMEM/F-12 without phenol red and with L-glutamine (Thermo Fisher), supplemented with 10 ng/ml fibroblast growth factor (Thermo Fisher), 10 ng/ml epidermal growth factor (Thermo Fisher), Gibco B-27 Supplement without vitamin A (Thermo Fisher), amphotericin (Fisher), and gentamycin (Fisher). The medium was changed daily for 2 days. […] After 2 days, tumors were measured and mice were randomly separated into three groups (7 mice per group), and vehicle/control (PBS), JM2-scrambled or JM2 were administered at 300 μM intratumorally every day for 14 days. Tumors were then measured by blinded investigators and harvested for analysis (see section below). Tumor volume was calculated using the formula (length × width^2)/2. […] After 7 days, tumors were measured and mice were randomly separated into three groups; vehicle/control (PBS), JM2-scrambled, and JM2 (3 mice per group). […] Tumor sizes were measured by electronic calipers at different times by blinded investigators, and tumor volume was calculated using the formula (length × width^2)/2.
All quantification was performed on experiments repeated at least three times. […] Data were analyzed for significance using Student’s t test, one-way ANOVA with Tukey’s multiple comparisons test, and presented as mean ± SD. […] Statistical significance between experimental groups was determined using chi-square (χ²) tests within the ELDA framework. […]

[1] = LN229/GSC model, 300 µM intratumorally every other day, first 31 days, n = 3

VFFKGVKDRVKGRSD [JM2]
Tumor growth, LN229/GSC model (300 μM intratumorally every other day, 24 days, after 33 days, n = 3 mice per group, compared to control or JM2-scrambled): significant decrease in tumor growth | t(87) statistic, rate of tumor growth, JM2 vs Control [1]: -5.081 | t(87) statistic, rate of tumor growth, JM2 vs JM2-scrambled [1]: -3.873
